Tests used:
CYP1A2 = assay: CYP induction, in situ catalytic activity, human hepatocytes; type: in vitro ADME
Source text: Rifampicin as a positive control and solvent (0.1% DMSO) vehicle control were also included. The acceptance criteria for CYP induction was ≥ 2-fold induction for significant CYP activity, while the acceptance criteria for CYP mRNA was ≥ 4-fold for significant CYP induction.

OAT3 = target: T1, OAT3 (Homo sapiens, UniProt Q8TCC7); assay: Transporter mediated assay (substrate/inhibitor), MDCK-II cells; type: in vitro ADME
T1 construct: expressed in transfected cells; host or cells: MDCK-II cells
T1 sequence (Q8TCC7 1-542): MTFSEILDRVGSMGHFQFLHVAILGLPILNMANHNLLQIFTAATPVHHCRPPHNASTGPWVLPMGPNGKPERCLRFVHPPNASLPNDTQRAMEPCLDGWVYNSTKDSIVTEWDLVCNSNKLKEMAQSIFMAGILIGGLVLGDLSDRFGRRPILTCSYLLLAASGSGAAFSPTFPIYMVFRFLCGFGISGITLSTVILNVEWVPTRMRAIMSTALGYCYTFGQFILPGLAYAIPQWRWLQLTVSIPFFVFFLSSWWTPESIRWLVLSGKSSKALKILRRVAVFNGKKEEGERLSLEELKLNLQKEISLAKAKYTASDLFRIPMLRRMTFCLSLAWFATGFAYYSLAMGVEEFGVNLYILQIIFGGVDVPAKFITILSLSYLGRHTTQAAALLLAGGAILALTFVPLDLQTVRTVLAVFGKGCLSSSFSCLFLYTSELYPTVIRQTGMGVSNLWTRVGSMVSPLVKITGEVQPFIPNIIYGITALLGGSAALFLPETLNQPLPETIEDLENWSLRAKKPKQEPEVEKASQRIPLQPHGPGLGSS
Procedure: The MDCK-II cells were treated to express the transporter of interest. The transport of each probe substrate was determined by radiometric detection (Fig 1 in S1 File). […] For the uptake assay, the net transporter-mediated uptake-rate (V) of the substrate by each SLC transporter was calculated as follows: Transporter–mediatedupdaterate(pmol/min/cm^2)=(Cellularaccumulationincellsexpressingthetransporter)−(Meancellularaccumulationincontrolcells)/Surfacearea×incubationtime
Fold of activity and percent inhibition were determined as follows: Foldofactivity=(Meanuptakerate)transporterexpressingcells/(Meanuptakerate)controlcells Percentinhibition=100−100×(Transport‐mediatedupdaterate)withinhibitor/(Transport‐mediatedupdaterate)vehiclecontrol

[1] = tested on: oxycodone self-administration; design: method as in PMID 30555159; conditions: rodents, 5, 15 and 25 mg/kg ref 6; cited from earlier work
BCRP = target: T2, BCRP (Homo sapiens, UniProt Q9UNQ0); assay: Transporter mediated assay (substrate/inhibitor), MDCK-II cells; type: in vitro ADME
T2 construct: expressed in transfected cells; host or cells: MDCK-II cells
T2 sequence (Q9UNQ0 1-655): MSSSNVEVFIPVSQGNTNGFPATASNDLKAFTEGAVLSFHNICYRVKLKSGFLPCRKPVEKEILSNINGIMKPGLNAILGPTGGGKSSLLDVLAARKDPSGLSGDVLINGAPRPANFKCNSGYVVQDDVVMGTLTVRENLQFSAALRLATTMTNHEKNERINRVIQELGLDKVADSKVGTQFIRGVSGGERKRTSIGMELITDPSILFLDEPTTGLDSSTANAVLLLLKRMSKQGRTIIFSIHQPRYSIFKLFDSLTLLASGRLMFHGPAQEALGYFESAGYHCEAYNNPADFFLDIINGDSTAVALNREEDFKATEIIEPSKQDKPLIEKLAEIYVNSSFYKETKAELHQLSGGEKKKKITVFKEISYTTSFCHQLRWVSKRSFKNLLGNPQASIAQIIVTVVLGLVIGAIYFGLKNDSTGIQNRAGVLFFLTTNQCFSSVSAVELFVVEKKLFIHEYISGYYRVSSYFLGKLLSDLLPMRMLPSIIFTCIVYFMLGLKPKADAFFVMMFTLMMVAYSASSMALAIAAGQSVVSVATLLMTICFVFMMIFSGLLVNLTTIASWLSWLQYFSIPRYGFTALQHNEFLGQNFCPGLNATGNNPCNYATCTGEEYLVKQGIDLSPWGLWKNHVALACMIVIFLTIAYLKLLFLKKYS
Procedure: The MDCK-II cells were treated to express the transporter of interest.
For BCRP and P-gp, the apparent permeability Papp and Efflux Ratio (ER) were calculated [16]. Net basal (B) to apical (A) flux (B → A) of the substrate transport (pmol/min/cm^2) by BCRP or P-gp was calculated by subtracting A → B flux from B → A flux.

D3R = tested on: D3R; design: method as in PMID 31526003; conditions: read-out: antagonist effect on D3R (IC50); cited from earlier work

CCc1cc(Cl)c(OC)c(N2CCN(CC(O)CCNC(=O)c3cc4ccccc4[nH]3)CC2)c1 (stereo not shown) [R-VK4-116, N-(4-(4-(3-chloro-5-ethyl-2-methoxyphenyl)piperazin-1-yl)-3-hydroxybutyl)-1H-indole-2-carboxamide]
CYP1A2 activity, Fold of Vehicle Control (CYP1A2; Lot 336, 0.01 µM): 0.96 fold
Phenacetin-O- deethylation (CYP1A2; Lot 336, 0.01 µM): 1.1 pmol/min/106 cells
CYP1A2 activity, Fold of Vehicle Control (CYP1A2; Lot 336, 0.1 µM): 0.96 fold
Phenacetin-O- deethylation (CYP1A2; Lot 336, 0.1 µM): 1.1 pmol/min/106 cells
CYP1A2 activity, Fold of Vehicle Control (CYP1A2; Lot 336, 1 µM): 1.2 fold
Phenacetin-O- deethylation (CYP1A2; Lot 336, 1 µM): 1.4 pmol/min/106 cells
CYP1A2 activity, Fold of Vehicle Control (CYP1A2; Lot 336, 3 µM): 1.5 fold
Phenacetin-O- deethylation (CYP1A2; Lot 336, 3 µM): 1.8 pmol/min/106 cells
CYP1A2 activity, Fold of Vehicle Control (CYP1A2; Lot 336, 5 µM): 1.6 fold
Phenacetin-O- deethylation (CYP1A2; Lot 336, 5 µM): 1.8 pmol/min/106 cells
CYP1A2 activity, Fold of Vehicle Control (CYP1A2; Lot 336, 10 µM): 1.5 fold
CYP1A2 activity, Fold of Vehicle Control (CYP1A2; Lot 348B, 0.01 µM): 0.92 fold
CYP1A2 activity, Fold of Vehicle Control (CYP1A2; Lot 348B, 0.1 µM): 0.91 fold
CYP1A2 activity, Fold of Vehicle Control (CYP1A2; Lot 348B, 1 µM): 0.99 fold
CYP1A2 activity, Fold of Vehicle Control (CYP1A2; Lot 348B, 3 µM): 1.1 fold
CYP1A2 activity, Fold of Vehicle Control (CYP1A2; Lot 348B, 5 µM): 1.1 fold
CYP1A2 activity, Fold of Vehicle Control (CYP1A2; Lot 348B, 10 µM): 1.1 fold
CYP1A2 activity, Fold of Vehicle Control (CYP1A2; Lot 399, 0.01 µM): 1.1 fold
Phenacetin-O- deethylation (CYP1A2; Lot 399, 0.01 µM): 8.8 pmol/min/106 cells
CYP1A2 activity, Fold of Vehicle Control (CYP1A2; Lot 399, 0.1 µM): 1.1 fold
Phenacetin-O- deethylation (CYP1A2; Lot 399, 0.1 µM): 9.4 pmol/min/106 cells
CYP1A2 activity, Fold of Vehicle Control (CYP1A2; Lot 399, 1 µM): 1.1 fold
Phenacetin-O- deethylation (CYP1A2; Lot 399, 1 µM): 9.3 pmol/min/106 cells
CYP1A2 activity, Fold of Vehicle Control (CYP1A2; Lot 399, 3 µM): 1.2 fold
Phenacetin-O- deethylation (CYP1A2; Lot 399, 3 µM): 9.8 pmol/min/106 cells
CYP1A2 activity, Fold of Vehicle Control (CYP1A2; Lot 399, 5 µM): 1.2 fold
Phenacetin-O- deethylation (CYP1A2; Lot 399, 5 µM): 10 pmol/min/106 cells
CYP1A2 activity, Fold of Vehicle Control (CYP1A2; Lot 399, 10 µM): 1.1 fold
Phenacetin-O- deethylation (CYP1A2; Lot 399, 10 µM): 9.0 pmol/min/106 cells
fold difference in mean uptake rate (substrate test) (OAT3; OAT3, 1 μM, transporter cells vs control cells): < 2 fold
Inhibition (%) (OAT3; OAT3, 0.1% BSA, 10 μM): no statistically significant inhibition
inhibition at 10 µM (OAT3; human, polarized monolayer of MDCK-II cells expressing OAT3, OAT3, 0.1% BSA, 10 μM): -5.73 ± 8.06%
oxycodone self-administration [1]: decreased
Papp A→B at 1 µM (BCRP; BCRP, substrate test, 1 µM): < 0.2 ×10⁻⁶ cm/s
Papp B→A at 1 µM (BCRP; BCRP, substrate test, 1 µM): < 0.1 ×10⁻⁶ cm/s
inhibition at 10 µM (BCRP; probe prazosin 2 μM): 54 ± 1.46%
IC50 (D3R): 350 nM
